Assay results from PubChem BioAssay (NCI).
Several values for one entry are separate records, joined by “and”; a condition that tells them apart may be missing. Equal values may be shown once.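 At the GI50, growth is halved. Definition used: TGI = concentration required for complete inhibition of growth.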

Columns and labels:
Assay in all cases: DTP human tumour cell line panel, 384-well format
786-0 renal = tested on: 786-0 renal
SNB-75 CNS = tested on: SNB-75 CNS
HL-60(TB) leukemia = tested on: HL-60(TB) leukemia
MDA-MB-435 melanoma = tested on: MDA-MB-435 melanoma
M14 melanoma = tested on: M14 melanoma
T-47D breast = tested on: T-47D breast
NCI-H226 lung = tested on: NCI-H226 lung
TK-10 renal = tested on: TK-10 renal
SNB-19 CNS = tested on: SNB-19 CNS
KM12 colon = tested on: KM12 colon
HCC-2998 colon = tested on: HCC-2998 colon
RPMI-8226 leukemia = tested on: RPMI-8226 leukemia
MCF7 breast = tested on: MCF7 breast
COLO 205 colon = tested on: COLO 205 colon
HCT-116 colon = tested on: HCT-116 colon
ACHN renal = tested on: ACHN renal
BT-549 breast = tested on: BT-549 breast
HCT-15 colon = tested on: HCT-15 colon
MDA-MB-468 breast = tested on: MDA-MB-468 breast
HOP-92 NSCLC = tested on: HOP-92 NSCLC
OVCAR-3 ovarian = tested on: OVCAR-3 ovarian
CAKI-1 renal = tested on: CAKI-1 renal
CCRF-CEM leukemia = tested on: CCRF-CEM leukemia
SK-OV-3 ovarian = tested on: SK-OV-3 ovarian
SF-539 CNS = tested on: SF-539 CNS
RXF 393 renal = tested on: RXF 393 renal
UACC-257 melanoma = tested on: UACC-257 melanoma
SK-MEL-2 melanoma = tested on: SK-MEL-2 melanoma
MALME-3M melanoma = tested on: MALME-3M melanoma
HOP-62 NSCLC = tested on: HOP-62 NSCLC
DU-145 prostate = tested on: DU-145 prostate
SW-620 colon = tested on: SW-620 colon
HT29 colon = tested on: HT29 colon
OVCAR-5 ovarian = tested on: OVCAR-5 ovarian
HS 578T breast = tested on: HS 578T breast
A498 renal = tested on: A498 renal
A549 NSCLC = tested on: A549 NSCLC
NCI-H460 NSCLC = tested on: NCI-H460 NSCLC
IGROV1 ovarian = tested on: IGROV1 ovarian
SR leukemia = tested on: SR leukemia
OVCAR-4 ovarian = tested on: OVCAR-4 ovarian
SK-MEL-28 melanoma = tested on: SK-MEL-28 melanoma
SN12C renal = tested on: SN12C renal
NCI-H23 lung = tested on: NCI-H23 lung
EKVX NSCLC = tested on: EKVX NSCLC
U251 glioblastoma = tested on: U251 glioblastoma
PC-3 prostate = tested on: PC-3 prostate
SF-295 CNS = tested on: SF-295 CNS
UO-31 renal = tested on: UO-31 renal
SF-268 CNS = tested on: SF-268 CNS
OVCAR-8 ovarian = tested on: OVCAR-8 ovarian
LOX IMVI melanoma = tested on: LOX IMVI melanoma
UACC-62 melanoma = tested on: UACC-62 melanoma
MDA-MB-231 breast = tested on: MDA-MB-231 breast
SK-MEL-5 melanoma = tested on: SK-MEL-5 melanoma
NCI/ADR-RES ovarian = tested on: NCI/ADR-RES ovarian
MOLT-4 leukemia = tested on: MOLT-4 leukemia
NCI-H322M lung = tested on: NCI-H322M lung
K-562 leukemia = tested on: K-562 leukemia
NCI-H522 lung = tested on: NCI-H522 lung

In the case of `Oc1cccc(-c2nc(N3CCOCC3)c3oc4ncccc4c3n2)c1`, the GI50 ([…]-0 renal) was 297 nM, the TGI (786-0 renal) was 1480 nM and the GI50 (SNB-75 CNS) was 33.4 nM and 53.7 nM. For the same compound, the GI50 (HL-60(TB) leukemia) was 62.2 nM and 20.5 nM, the TGI (HL-60(TB) leukemia) was 978 nM and 217 nM and the GI50 (MDA-MB-435 melanoma) was 161 nM and 162 nM. The TGI (MDA-MB-435 melanoma) was 823 nM and 767 nM, the GI50 (M14 melanoma) was 260 nM and 155 nM and the GI50 (T-47D breast) was 150 nM and 215 nM. For the same compound, the GI50 (NCI-H226 lung) was 3470 nM and 2290 nM, the TGI (NCI-H226 lung) was 22.4 µM and 5.68 µM and the GI50 (TK-10 renal) was 331 nM and 167 nM. For the same compound, the TGI (TK-10 renal) was 1920 nM and 695 nM, the GI50 (SNB-19 CNS) was 1260 nM and 1380 nM and the TGI (SNB-19 CNS) was > 100 µM and 24.3 µM. The GI50 (KM12 colon) was 312 nM and 305 nM, the TGI (KM12 colon) was > 100 µM and the GI50 (HCC-2998 colon) was 147 nM and 367 nM. The TGI (HCC-2998 colon) was 4.25 µM and 8.57 µM, the GI50 (RPMI-8226 leukemia) was 116 nM and 44.9 nM and the TGI (RPMI-8226 leukemia) was 419 nM and 184 nM. The GI50 (MCF7 breast) was 208 nM and 99 nM, the TGI (MCF7 breast) was 23.3 µM and 19.5 µM and the GI50 (COLO 205 colon) was 4.48 µM and 5.55 µM. For the same compound, the TGI (COLO 205 colon) was 33.6 µM and 27.2 µM, the GI50 (HCT-116 colon) was 982 nM and 466 nM and the TGI (HCT-116 colon) was > 100 µM. The GI50 (ACHN renal) was 70.7 nM and 77.9 nM, the TGI (ACHN renal) was 2440 nM and 563 nM and the GI50 (BT-549 breast) was 27.9 nM and 125 nM. The TGI (BT-549 breast) was 347 nM and 493 nM, the GI50 (HCT-15 colon) was 128 nM and 104 nM and the TGI (HCT-15 colon) was > 100 µM and 38.5 µM. The GI50 (MDA-MB-468 breast) was 289 nM and 291 nM, the TGI (MDA-MB-468 breast) was 1140 nM and 1240 nM and the GI50 (HOP-92 NSCLC) was 50.6 nM and 111 nM. The GI50 (OVCAR-3 ovarian) was 54 nM and 118 nM, the TGI (OVCAR-3 ovarian) was 398 nM and 408 nM and the GI50 (CAKI-1 renal) was 395 nM and 255 nM. The TGI (CAKI-1 renal) was 5.22 µM and 12.3 µM, the GI50 (CCRF-CEM leukemia) was 202 nM and the TGI (CCRF-CEM leukemia) was 2730 nM. For the same compound, the GI50 (SK-OV-3 ovarian) was 81.1 nM and 120 nM, the GI50 (SF-539 CNS) was 114 nM and 143 nM and the TGI (SF-539 CNS) was 1.59 µM and 11.4 µM. The GI50 (RXF 393 renal) was 95.7 nM and 207 nM, the TGI (RXF 393 renal) was 337 nM and 2860 nM and the GI50 (UACC-257 melanoma) was 535 nM and 350 nM. The TGI (UACC-257 melanoma) was 5.39 µM and 3.81 µM, the GI50 (SK-MEL-2 melanoma) was 808 nM and the TGI (SK-MEL-2 melanoma) was 4.72 µM. The GI50 (MALME-3M melanoma) was 40.3 nM and 83.5 nM, the GI50 (HOP-62 NSCLC) was 429 nM and 231 nM and the TGI (HOP-62 NSCLC) was 3.82 µM and 2.81 µM. The GI50 (DU-145 prostate) was 154 nM and 112 nM, the GI50 (SW-620 colon) was 561 nM and the TGI (SW-620 colon) was > 100 µM. The GI50 (HT29 colon) was 3.28 µM and 3.42 µM, the TGI (HT29 colon) was > 100 µM and the GI50 (OVCAR-5 ovarian) was 3.54 µM and 2.56 µM. The GI50 (HS 578T breast) was 61.9 nM and 86.1 nM, the TGI (HS 578T breast) was 288 nM and 617 nM and the GI50 (A498 renal) was 2050 nM and 598 nM. The TGI (A498 renal) was 4.69 µM and 2.87 µM, the GI50 (A549 NSCLC) was 251 nM and 353 nM and the TGI (A549 NSCLC) was 1.68 µM and 15.4 µM. The GI50 (NCI-H460 NSCLC) was 155 nM and 44.1 nM, the GI50 (IGROV1 ovarian) was 115 nM and 155 nM and the TGI (IGROV1 ovarian) was 393 nM and 380 nM. For the same compound, the GI50 (SR leukemia) was 207 nM and 61.2 nM, the TGI (SR leukemia) was 890 nM and 205 nM and the GI50 (OVCAR-4 ovarian) was 350 nM and 87.4 nM. For the same compound, the TGI (OVCAR-4 ovarian) was 3690 nM and 613 nM, the GI50 (SK-MEL-28 melanoma) was 96.3 nM and 123 nM and the GI50 (SN12C renal) was 121 nM and 43.3 nM. For the same compound, the GI50 (NCI-H23 lung) was 306 nM and 324 nM, the TGI (NCI-H23 lung) was 16.1 µM and 17.7 µM and the GI50 (EKVX NSCLC) was 111 nM and 135 nM. For the same compound, the TGI (EKVX NSCLC) was 468 nM and 504 nM, the GI50 (U251 glioblastoma) was 670 nM and 390 nM and the TGI (U251 glioblastoma) was > 100 µM and 19.6 µM. The GI50 (PC-3 prostate) was 40.8 nM and 39.3 nM, the TGI (PC-3 prostate) was 1730 nM and 299 nM and the GI50 (SF-295 CNS) was 1290 nM and 2370 nM. For the same compound, the TGI (SF-295 CNS) was 4.02 µM and 8.53 µM, the GI50 (UO-31 renal) was 60.9 nM and the TGI (UO-31 renal) was 295 nM. For the same compound, the GI50 (SF-268 CNS) was 239 nM and 394 nM, the TGI (SF-268 CNS) was 10.1 µM and 17.9 µM and the GI50 (OVCAR-8 ovarian) was 197 nM. The TGI (OVCAR-8 ovarian) was > 100 µM, the GI50 (LOX IMVI melanoma) was 318 nM and 207 nM and the TGI (LOX IMVI melanoma) was 1570 nM and 1060 nM. For the same compound, the GI50 (UACC-62 melanoma) was 305 nM and 400 nM, the TGI (UACC-62 melanoma) was 1460 nM and 2300 nM and the GI50 (MDA-MB-231 breast) was 289 nM and 500 nM. For the same compound, the TGI (MDA-MB-231 breast) was 47.6 µM and > 100 µM, the GI50 (SK-MEL-5 melanoma) was 103 nM and 77.6 nM and the TGI (SK-MEL-5 melanoma) was 498 nM and 279 nM. The GI50 (NCI/ADR-RES ovarian) was 240 nM and 151 nM, the TGI (NCI/ADR-RES ovarian) was > 100 µM and 18 µM and the GI50 (MOLT-4 leukemia) was 23 nM and 39.1 nM. The TGI (MOLT-4 leukemia) was 230 nM and 195 nM, the GI50 (NCI-H322M lung) was 229 nM and 106 nM and the TGI (NCI-H322M lung) was 2030 nM and 642 nM. The GI50 (K-562 leukemia) was 327 nM, the TGI (K-562 leukemia) was > 100 µM and the GI50 (NCI-H522 lung) was 81.6 nM and 55.9 nM. For the same compound, the TGI (NCI-H522 lung) was 524 nM and 501 nM.
